Results on nine molecules are retold here after US20230212274A1, “METHOD FOR TREATING ASTHMA OR ALLERGIC DISEASE” (THE CHILDREN'S MEDICAL CENTER CORPORATION, priority 2020, published 2023).

Assay [1] has as its system GDF15. Description: in vitro co-culture of GDF15-expressing Notch4high Treg cells with naive ILC2 cells. In kind it is cell-based, mouse. The settings on record: Treg cells from lungs of OVA+UFP-treated mice. Here is the method: (§1) FIGS. 5A-5L show Notch4 promotes ILC2 activation via a GDF15-dependent mechanism (FIG. 5A) Flow cytometric analysis and frequencies of IL13^+ ILC2 (Lineage^- T1/ST2^+ cells) in mice of respective genotypes treated as indicated. (FIG. 5B and FIG. 5C) In vitro suppression assays of ILC2 cells isolated from OVA+UFP-treated Foxp3^YFPCre mice and incubated with Treg cells of mice of the respective genotypes treated as indicated. Additional treatment of in vitro cultures with isotype control or anti-Notch4 mAb is also indicated. (FIG. 5D) Flow cytometric analysis and frequencies of GDF15^+ lung Treg cells of mice of the respective genotypes treated as indicated. (FIG. 5E) Flow cytometric analysis and frequencies of IL-13 expression in cultures of naive ILC2 stimulated with IL-33, GDF15 or both. (FIG. 5F) IL-13 expression in naive ILC2 incubated with Notch4^high Treg cells from OVA+UFP treated mice without or with blocking GDF15 peptide. (FIG. 5G and FIG. 5H) AHR and IL13^+ ILC2 frequencies in Foxp3^YFPCre mice treated as indicated and challenged in the presence of carrier protein or GDF15 blocking peptide. (FIG. 5I to FIG. 5K) AHR and frequencies of the indicated lung cell types in sham or OVA+UFP sensitized and challenged Foxp3^YFPCre and Foxp3^YFPCreNotch4^Δ/Δ mice treated with recombinant GDF15, as indicated. Each symbol represents an independent sample. […]

The test system of assay [2] is allergic airway inflammation. Description: OVA+UFP allergic airway inflammation in mice, intra-tracheal instillation. Type of assay: in vivo, mouse. How it is done:
FIGS. 5A-5L show Notch4 promotes ILC2 activation via a GDF15-dependent mechanism (FIG. 5A) Flow cytometric analysis and frequencies of IL13^+ ILC2 (Lineage^- T1/ST2^+ cells) in mice of respective genotypes treated as indicated. (FIG. 5B and FIG. 5C) In vitro suppression assays of ILC2 cells isolated from OVA+UFP-treated Foxp3^YFPCre mice and incubated with Treg cells of mice of the respective genotypes treated as indicated. Additional treatment of in vitro cultures with isotype control or anti-Notch4 mAb is also indicated. (FIG. 5D) Flow cytometric analysis and frequencies of GDF15^+ lung Treg cells of mice of the respective genotypes treated as indicated. (FIG. 5E) Flow cytometric analysis and frequencies of IL-13 expression in cultures of naive ILC2 stimulated with IL-33, GDF15 or both. (FIG. 5F) IL-13 expression in naive ILC2 incubated with Notch4^high Treg cells from OVA+UFP treated mice without or with blocking GDF15 peptide. (FIG. 5G and FIG. 5H) AHR and IL13^+ ILC2 frequencies in Foxp3^YFPCre mice treated as indicated and challenged in the presence of carrier protein or GDF15 blocking peptide. (FIG. 5I to FIG. 5K) AHR and frequencies of the indicated lung cell types in sham or OVA+UFP sensitized and challenged Foxp3^YFPCre and Foxp3^YFPCreNotch4^Δ/Δ mice treated with recombinant GDF15, as indicated. Each symbol represents an independent sample. Numbers in flow plots indicate percentages. Error bars indicate SEM. Statistical tests: two-way ANOVA with Sidak’s post hoc analysis (FIGS. 5A to 5D, 5G and 5I); One-way ANOVA with Dunnett’s post hoc analysis (FIGS. 5E and 5F, 5H and 5J). *P<0.05, ***P<0.001, ****P<0.0001. Data representative of two or three independent experiments. n=5-15 mice per group.
(FIG. 18A) Representative PAS-stained sections of lung tissues isolated from Foxp3^YFPCre and Foxp3^YFPCreNotch4^Δ/Δ with either PBS or OVA+UFP, the latter either alone or supplemented with GDF15, as indicated (200X magnification). (FIG. 18B) Inflammation score for the respective mouse groups. (FIG. 18C) Frequencies of ILC in the lungs of respective mouse groups. (FIG. 18D) IL-4, IL-13, and IL-17 expression in lung Foxp3^-CD4^+ Teff cells in the respective groups. (FIG. 18E) IL-4, IL-13, and IL-17 expression in lung Foxp3^+CD4^+ Treg cells in the respective groups. Error bars indicate SEM. Statistical tests. One-way ANOVA with Dunnett’s post hoc analysis. (FIGS. 18A-18E) **P<0.01, ***P<0.001, ****P<0.0001. Data representative of two or three independent experiments. n=10 mice per group.
(FIG. 19A) Representative PAS-stained sections of lung tissues isolated from Foxp3^YFPCre, treated with GDF15 blocking peptide segregated into PBS, or OVA+UFP-treated groups (200X magnification). (FIG. 19B) Inflammation score for the respective mouse groups. […]

Assay [3] concerns Notch4 expression on differentiating iTreg cells. In words: in vitro iTreg cell differentiation: OT-II T cells co-cultured with OVA323-339- or OVA323-339+UFP-pulsed alveolar macrophages, Notch4 by flow cytometry. Type of assay: cell-based, mouse. The settings on record: for Notch4 expression on differentiating iTreg cells: cytokine added to co-cultures with OVA323-339 / OVA323-339+UFP-pulsed alveolar macrophages. The text has this: (§2) FIGS. 1A-1H show Notch4 expression on lung Treg cells in allergic airway inflammation. (FIG. 1A) RT-PCR of Notchl-4 transcripts in lung Treg and Teff cells isolated from PBS, OVA and OVA+UFP mouse groups. (FIG. 1B and FIG. 1C) Flow cytometric analysis, cell frequencies and mean fluorescence intensity (MFI) of Notch4 expression on lung Treg and Teff cells in the respective mouse groups. (FIG. 1D and FIG. 1E) Flow cytometric analysis and cell frequencies of Notch4 expression on OT-II^+CD4^+Foxp3^+ T cells generated in co-cultures with sham or OVA323-339+UFP-pulsed alveolar macrophages without or with IL-6 or anti-IL-6R mAb. (FIG. 1F) Flow cytometric analysis and cell frequencies of Notch4 expression in Helios^high and Helios^low lung Treg cells isolated from the respective mouse groups. (FIG. 1G) Flow cytometric analysis and cell frequencies of Notch4 expression on in vitro differentiated Treg cells derived from naive CD4^+ T cells isolated from Foxp3^YFPCre, Foxp3^YFPCreIl6r^Δ/Δ and Foxp3^YFPCreStat3^Δ/Δ mice and either untreated or treated with IL-6. (FIG. 1H) ChIP assays for the binding of STAT3 and control (IgG) antibodies to the Notch4 promoter in lung Treg cells of OVA+UFP-treated Foxp3^YFPCre, and Foxp3^YFPCreStat3^Δ/Δ mice. Each symbol represents one mouse. Numbers in flow plots indicate percentages. Error bars indicate SEM. Statistical tests for all panels: One-way ANOVA with Dunnett’s post hoc analysis. *P<0.05, **P<0.01, ***P<0.001, ****P<0.0001. Data representative of two or three independent experiments. (FIGS. 1A, 1D to 1F) n=5, (FIGS. 1B and 1C) n=15 and (FIGS. 1G and 1H) n=6 replicates per group.
FIGS. 7A-7E show Notch4 expression on lung Treg cells in allergic airway inflammation. (FIGS. 7A to 7C) Flow cytometric analysis, cell frequencies and mean fluorescence intensity (MFI) of Notch1, 2 and 3 expression on lung Treg and Teff cells in the respective mouse groups. (FIG. 7D) Cell frequencies of Notch4 expression on OT-II^+CD4^+Foxp3^+ T cells generated in co-cultures with sham or OVA323-339+UFP-pulsed alveolar macrophages without or with IL-1B, IL-25, IL-33, TSLP or TNFa. (FIG. 7E) ChIP assays for the binding of STAT3 and control (IgG) antibodies to the Notch1, 2 and 3 promoters in lung Treg cells of OVA+UFP-treated Foxp3^YFPCre, and Foxp3^YFPCreStat3^Δ/Δ mice. Each symbol represents one mouse. Numbers in flow plots indicate percentages. Error bars indicate SEM. Statistical tests for all panels: One-way ANOVA with Dunnett’s post hoc analysis. *P<0.05, **P<0.01, ***P<0.001, ****P<0.0001. Data representative of two or three independent experiments. N = 5-10 replicas per group.
To examine signals driving the induction of Notch4 on iTreg cells, the inventors employed an in vitro iTreg cell differentiation system in which OT-II T cell receptor (TCR) transgenic T cells, specific for the OVA323-339 peptide, were incubated with isolated primary alveolar macrophages (AM). […] Chromatin immunoprecipitation assays confirmed IL-6-dependent inducible binding of STAT3 to the Notch4 promoter in Treg cells, but not to those of Notch1, Notch2 or Notch3, which was abrogated by Stat3 deletion (FIG. 1I; […]).
(In general: A flow cytometer gives signals particle by particle.)

The test system of assay [4] is Notch4 on differentiating Treg cells. Description: antigen presenting cell-free in vitro iTreg cell differentiation (anti-CD3+anti-CD28 mAbs, TGF-β1). Type of assay: cell-based, mouse. The settings on record: naive T cells.
Source text: as §2, with “Statistical tests for all panels: One-way ANOVA with Dunnett’s post hoc analysis. *P<0.05, **P<0.01, ***P<0.001, ****P<0.0001. Data representative of two or three independent experiments. (FIGS. 1A, 1D to 1F) n=5, (FIGS. 1B and 1C) n=15 and (FIGS. 1G and 1H) n=6 replicates per group.” left out

The test system of assay [5] is Notch4 expression on Treg cells. In words: Notch4 expression on peripheral blood Treg cells of a severe asthmatic subject before and after therapy. Type of assay: in vivo, human. The conditions noted are these: post therapy. The text has this: In contrast, Notch4 expression on circulating CD4^+ Teff cells was low and remained relatively flat as a function of asthma severity (FIG. 6B). Also, expression of Notchl-3 on Treg and Teff cells was not increased in asthmatics as compared to control subjects (FIGS. 17A-17I). Notch4 expression was restricted to the Helios^low iTreg cell subpopulation (FIG. 6C). […] Also, there were increased concentrations of GDF 15 in the sera of moderate and severe asthmatics that positively correlated with circulating Treg cell Notch4 expression (FIG. 6F).

In assay [6] the test system is IL-13 expression in naive ILC2. In words: in vitro cultures of ILC2 derived from naive mice stimulated with GDF15, IL-33 or both. Type of assay: cell-based, mouse. How it is done: as §1
The mark [7] stands for this setting: OVA+UFP treated Foxp3YFPCreNotch4Δ/Δ mice, intra-tracheal instillation.

“Also recorded” adds a separate entry of the source.

For “GDF15 blocking peptide: GDF15 inhibitory peptide, KTSLHRLKPDTVPAPC (SEQ ID NO: 1; amino acids 258-273 of the full length GDF15 gene product) (listed as Homo sapiens)”, the “upregulation of IL13 expression in naive ILC2 by Notch4high Treg cells” value in assay [1] is given as “reversed”. Besides, the “AHR, tissue inflammation, IL-4 and IL-13 expression in Teff cells (allergic airway inflammation)” value in assay [2] (OVA+UFP treated Foxp3YFPCre mice, instillation) is given as “downregulated the aforementioned changes; also recorded: attenuates allergic airway inflammation”. As to IL-1β: cytokine added to cell cultures, in assay [3], the “Notch4 expression on differentiating iTreg cells” value was “not”. “IL-6: interleukin-6 cytokine added to cell cultures”: the “Notch4 expression on differentiating iTreg cells” value in assay [3] is on record as “super-induction of Notch4 expression”. Also, the “Notch4 on differentiating Treg cells” value in assay [4] was “induced Notch4 on differentiating Treg cells”. Regarding TNFa, the “Notch4 expression on differentiating iTreg cells” value in assay [3] is on record as “not”. Regarding TSLP: cytokine added to cell cultures, in assay [3], the “Notch4 expression on differentiating iTreg cells” value is given as “not”. In the case of “Tocilizumab: anti-IL-6R mAb (anti-IL-6Ra chain mAb)”, the “Notch4 expression on patient Treg cells” value is recorded as “decreased Notch4 expression” in assay [5] and “substantially attenuated Notch4 expression” in assay [5] (listed as tocilizumab).

B1: IL-33: cytokine added to cell cultures (protein, UniProt O95760 1-270, looked up)
Interleukin-33: MKPKMKYSTNKISTAKWKNTASKALCFKLGKSQQKAKEVCPMYFMKLRSGLMIKKEACYFRRETTKRPSLKTGRKHKRHLVLAACQQQSTVECFAFGISGVQKYTRALHDSSITGISPITEYLASLSTYNDQSITFALEDESYEIYVEDLKKDEKKDKVLLSYYESQHPSNESGDGVDGKMLMVTLSPTKDFWLHANNKEHSVELHKCEKPLPDQAFFVLHNMHSNCVSFECKTDPGVFIGVKDNHLALIKVDSSENLCTENILFKLSET
For the molecule B1, in assay [3] (added together with IL-6), the “Notch4 expression induced by IL-6” value is recorded as “further upregulated the expression of Notch4”. For the same molecule, the “Notch4 expression on differentiating iTreg cells” value in assay [3] is on record as “did not induce Notch4 on its own”.

B2: IL-25: cytokine added to cell cultures (protein, UniProt Q9H293 33-177, looked up)
Interleukin-25: YSHWPSCCPSKGQDTSEELLRWSTVPVPPLEPARPNRHPESCRASEDGPLNSRAISPWRYELDRDLNRLPQDLYHARCLCPHCVSLQTGSHMDPRGNSELLYHNQTVFYRRPCHGEKGTHKGYCLERRLYRVSLACVCVRPRVMG
On to B2, for which the “Notch4 expression on differentiating iTreg cells” value in assay [3] was “not”.

B3: recombinant GDF15: recombinant cytokine growth and differentiation factor 15, secreted ligand of the TGF-beta superfamily (protein, UniProt Q99988 195-308, looked up)
Growth/differentiation factor …: ARARNGDHCPLGPGRCCRLHTVRASLEDLGWADWVLSPREVQVTMCIGACPSQFRAANMHAQIKTSLHRLKPDTVPAPCCVPASYNPMVLIQKTDTGVSLQTYDDLLAKDCHCI
Turning to B3, the “IL-13 expression in ILC2 derived from naive mice” value is on record as “upregulated IL-13 expression alone” in assay [6] (alone) and “especially in synergy with IL-33” in assay [6] (in combination with IL-33). Further, the “AHR and tissue inflammation” value in assay [2] (setting [7]) is “upregulated the AHR and tissue inflammation”; in assay [2] (OVA+UFP treated Foxp3YFPCreNotch4Δ/Δ mice, intra-tracheal instillation, listed as GDF15) it was “restores airway inflammation”. Further, the “IL-4 and IL-13 expression in Teff cells” value in assay [2] (setting [7]) is “increasing IL-4 and IL-13 expression in Teff cells”.
